We go through 16 molecules from paper PMC3676778, “The Effect of the Aerial Part of Lindera akoensis on Lipopolysaccharides (LPS)-Induced Nitric Oxide Production in RAW264.7 Cells” (International Journal of Molecular Sciences, 2013).

Bounds are passed on as bounds.

Holding throughout (format): cell-based, murine
Data set [1] in a line: Cell viability (MTT) of RAW264.7 cells in the presence of LPS. The settings on record: mouse, RAW264.7 macrophage cells, RAW 264.7 cells, 100 ng/mL LPS, mean ± SD of three replicates, read-out: Cytotoxicity IC50. The protocol:
(§1) A murine macrophage cell line RAW264.7 (BCRC No. 60001) was purchased from the Bioresources Collection and Research Center (BCRC) of the Food Industry Research and Development Institute (Hsinchu, Taiwan). Cells were cultured in plastic dishes containing Dulbecco’s Modified Eagle Medium (DMEM, Sigma, St. Louis, MO, USA) supplemented with 10% fetal bovine serum (FBS, Sigma, St. Louis, MO, USA, USA) in a CO2 incubator (5% CO2 in air) at 37 °C and subcultured every 3 days at a dilution of 1:5 using 0.05% trypsin-0.02% EDTA in Ca^2+-, Mg^2+-free phosphate-buffered saline (DPBS).
(§2) Cells (2 × 105) were cultured in 96-well plate containing DMEM supplemented with 10% FBS for 1 day to become nearly confluent. Then cells were cultured with compounds 1–5 in the presence of 100 ng/mL LPS (lipopolysaccharide) for 24 h. After that, the cells were washed twice with DPBS and incubated with 100 μL of 0.5 mg/mL MTT for 2 h at 37 °C testing for cell viability. The medium was then discarded, and 100 μL dimethyl sulfoxide (DMSO) was added. After 30-min incubation, the absorbance at 570 nm was read using a microplate reader (Molecular Devices, Sunnyvale, CA, USA).
(§3) IC50 values were estimated using a non-linear regression algorithm (SigmaPlot 8.0; SPSS Inc., Chicago, IL, USA, 2002). Statistical evaluation was carried out by one-way analysis of variance (ANOVA followed by Scheffe’s multiple range tests).

In data set [2] the test system is LPS-stimulated production of nitric oxide (NO) in RAW 264.7 cell. In words: Inhibition of LPS-induced NO (nitrite) production in RAW264.7 cells, Griess reaction. The settings on record: RAW 264.7 cells, LPS 100 ng/mL, 24 h, nitrite by Griess, mean ± SD of three replicates.
Text: NO, produced from L-arginine by NO synthase, has various biological actions, e.g., as a defense and regulatory molecule for homeostatic equilibrium. However, in pathophysiologic conditions, such as inflammation, there is an increased production of NO by inducible NO synthase (iNOS). Macrophages have been expected to be an origin of inflammation, because they contain various chemical mediators that may be responsible for several inflammatory stages. The inhibitory activity toward NO production, induced by lipopolysaccharides (LPS), by murine macrophage-derived RAW264.7 cells, was assayed.
as §1
NO production was indirectly assessed by measuring the nitrite levels in the cultured media and serum determined by a colorimetric method based on the Griess reaction. The cells were incubated with butanolides (0, 3.125, 6.25, 12.5, 25 and 50 μg/mL) in the presence of LPS (100 ng/mL) at 37 °C for 24 h. Then, cells were dispensed into 96-well plates, and 100 μL of each supernatant was mixed with the same volume of Griess reagent (1% sulfanilamide, 0.1% naphthyl ethylenediamine dihydrochloride and 5% phosphoric acid) and incubated at room temperature for 10 min; the absorbance was measured at 540 nm with a Micro-Reader (Molecular Devices Orleans Drive, Sunnyvale, CA, USA). Serum samples were diluted four times with distilled water and deproteinized by adding 1/20 volume of zinc sulfate (300 g/L) to a final concentration of 15 g/L. After centrifugation at 10,000× g for 5 min at room temperature, 100 μL supernatant was applied to a microtiter plate well, followed by 100 μL of Griess reagent. After 10 min of color development at room temperature, the absorbance was measured at 540 nm with a Micro-Reader. By using sodium nitrite to generate a standard curve, the concentration of nitrite was measured form absorbance at 540 nm.
as §3
(In general: The Griess reaction detects nitrite, a stable product of nitric oxide.)

For data set [3], the system named is RAW264.7 cells. In words: Cell viability (MTT) of RAW264.7 cells in the presence of LPS. Conditions: RAW 264.7 cells, 100 ng/mL LPS, 24 h, mean ± SD of three replicates, read-out: Cytotoxicity IC50. Here is the method: as §1, §2, §3

For the molecule `C#CCCCCCCCCC/C=C1/C(=O)O[C@@H](C)[C@H]1O` [Compound 5, (3E,4β,5β)-3-(dodec-11-ynylidene)-4-hydroxy-5-methylbutanolide], the IC50 (in general, the concentration that gives 50% inhibition) at 24 h in data set [1] was 143 ± 1.9 µM. For the same molecule, the IC50 in data set [2] (Mus musculus, RAW264.7) was 33.4 ± 1 µM.
The like results for `C[C@@H]1O[C@@H](Oc2c(-c3ccc(O)cc3)oc3cc(O)cc(O)c3c2=O)[C@H](O)[C@H](O)[C@H]1OC(=O)/C=C\c1ccc(O)cc1` [Compound 12, kaempferol 3-O-α-L-(4″-Z-p-coumaroyl) rhamnoside] were, in that order, more than 86.5 µM and 67.9 ± 1.9 µM.
Turning to `COc1ccc2c(c1)c(CC(=O)O)c(C)n2C(=O)c1ccc(Cl)cc1` [indomethacin, reference compound], the IC50 in data set [2] (Mus musculus, RAW264.7) was found to be 183 ± 5.5 µM.
For the molecule `COc1cc(CC2COCC2Cc2ccc3c(c2)OCO3)ccc1O` (stereo not shown) [Compound 6, linderinol], in data set [1], the IC50 at 24 h is more than 292 µM. Inhibition in data set [2] (Mus musculus, RAW264.7) was half-maximal at 196 ± 4 µM (IC50).
The like results for `COc1cc(C2OCC3C(=O)OCC32)ccc1O` (stereo not shown) [Compound 10, salicifoliol] were, in that order, more than 400 µM and 312 ± 14.1 µM.
As for `COc1ccc(-c2oc3cc(O)cc(O)c3c(=O)c2OC2OC(C)C(OC(=O)C=Cc3ccc(O)cc3)C(O)C2O)cc1` [Compound 11, 4′-O-methylkaempferol 3-O-α-L-(4″-E-p-coumaroyl)rhamnoside], the IC50 at 24 h in data set [1] was more than 84.5 µM. This molecule also yielded an IC50 in data set [2] (Mus musculus, RAW264.7) of 62.5 ± 2.2 µM.
For `COc1cc(C[C@H]2COC(=O)[C@@H]2Cc2ccc(O)c(OC)c2)ccc1O` [Compound 7, matairesinol], in data set [1], the IC50 at 24 h was more than 279 µM. The same molecule had an IC50 in data set [2] (Mus musculus, RAW264.7) of 179 ± 12.1 µM.
Turning to `CCCCCCCCCC/C=C/[C@@H]1C(=O)O[C@@H](C)[C@H]1O` [Compound 1, 3α-((E)-Dodec-1-enyl)-4β-hydroxy-5β-methyldihydrofuran-2-one], the IC50 at 24 h in data set [1] is 78 ± 5.1 µM. In addition, in data set [2] (Mus musculus, RAW264.7), the IC50 is 20.1 ± 0.3 µM.
Regarding (+)-pinoresinol [Compound 9], the results for the IC50 in data set [3] and in data set [2] were more than 279 µM and 90.4 ± 8.6 µM, respectively.
For `COc1cc([C@H]2OC[C@H]3[C@@H]2CO[C@@H]3c2cc(OC)c(O)c(OC)c2)cc(OC)c1O` [Compound 8, syringaresinol], in data set [1], the IC50 at 24 h was more than 239 µM. In data set [2] (Mus musculus, RAW264.7), the IC50 is 49.7 ± 4.5 µM.
Turning to `C#CCCCCCCCCC/C=C1\C(=O)O[C@@H](C)[C@@H]1O` [Compound 4, (3Z,4α,5β)-3-(dodec-11-ynylidene)-4-hydroxy-5-methylbutanolide], the IC50 at 24 h in data set [1] is 139 ± 2.8 µM. The same molecule returned an IC50 in data set [2] (Mus musculus, RAW264.7) of 21.7 ± 0.4 µM.
For the molecule `CCCCCCCCCCC/C=C1/C(=O)O[C@@H](C)[C@H]1O` [Compound 3, 3-epilistenolide D2], the IC50 at 24 h in data set [1] amounted to 27.7 ± 1.6 µM. Moreover, in data set [2] (Mus musculus, RAW264.7), the IC50 was 4.5 ± 0.1 µM.
Regarding `C[C@@H]1O[C@@H](Oc2c(-c3ccc(O)cc3)oc3cc(O)cc(O)c3c2=O)[C@H](O)[C@H](O)[C@H]1OC(=O)/C=C/c1ccc(O)cc1` [Compound 13, 4″-p-coumaroylafzelin], the IC50 at 24 h in data set [1] was more than 86.5 µM. The molecule also came in with an IC50 in data set [2] (Mus musculus, RAW264.7) of 76.9 ± 7.3 µM.
For `Oc1cc(O)c2c(c1)O[C@H](c1ccc(O)c(O)c1)[C@H](O)C2` [Compound 15, epicatechin], the IC50 at 24 h in data set [1] was more than 517 µM. This molecule showed an IC50 in data set [2] (Mus musculus, RAW264.7) of 352 ± 37.4 µM.
On to `CCCCCCCCCCC/C=C1\C(=O)O[C@@H](C)[C@H]1O` [Compound 2, 3-epilistenolide D1], for which the IC50 at 24 h in data set [1] turned out to be 32.6 ± 0.5 µM. The same molecule displayed an IC50 in data set [2] (Mus musculus, RAW264.7) of 4.1 ± 0.1 µM.
On to `Oc1cc(O)c2c(c1)O[C@H](c1ccc(O)c(O)c1)[C@@H](O)C2` [Compound 14, catechin], for which, in data set [1], the IC50 at 24 h was more than 517 µM. This molecule came in with an IC50 in data set [2] (Mus musculus, RAW264.7) of 414 ± 6.9 µM.
